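Results reflect a 48-hour exposure of cells in 96-well plates to compound at five concentrations. At the GI50, growth is halved. TGI is the concentration that stops growth completely.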
Tests used:
Experiment in all cases: NCI tumour cell line growth inhibition, 48 h
NCI-H23 lung = system: NCI-H23 lung
NCI-H460 lung = system: NCI-H460 lung
NCI-H522 lung = system: NCI-H522 lung
NCI/ADR-RES ovarian = system: NCI/ADR-RES ovarian
OVCAR-3 ovarian = system: OVCAR-3 ovarian
OVCAR-4 ovarian = system: OVCAR-4 ovarian
OVCAR-5 ovarian = system: OVCAR-5 ovarian
OVCAR-8 ovarian = system: OVCAR-8 ovarian
PC-3 prostate = system: PC-3 prostate
RPMI-8226 leukemia = system: RPMI-8226 leukemia
RXF 393 renal = system: RXF 393 renal
SF-268 CNS = system: SF-268 CNS
SF-295 CNS = system: SF-295 CNS
SF-539 CNS = system: SF-539 CNS
SK-MEL-2 melanoma = system: SK-MEL-2 melanoma
SK-MEL-28 melanoma = system: SK-MEL-28 melanoma
SK-MEL-5 melanoma = system: SK-MEL-5 melanoma
SK-OV-3 ovarian = system: SK-OV-3 ovarian
SN12C renal = system: SN12C renal
SNB-19 CNS = system: SNB-19 CNS
SNB-75 CNS = system: SNB-75 CNS
SR leukemia = system: SR leukemia
SW-620 colon = system: SW-620 colon
T-47D breast = system: T-47D breast
TK-10 renal = system: TK-10 renal
U251 CNS = system: U251 CNS
UACC-257 melanoma = system: UACC-257 melanoma
UACC-62 melanoma = system: UACC-62 melanoma
UO-31 renal = system: UO-31 renal

O=C1[C@@H]2Cc3c([nH]c4ccccc34)[C@H](c3c(Cl)cccc3Cl)N2C(=O)CN1C1CCN(Cc2ccccc2)CC1
GI50 (NCI-H23 lung): 4.77 µM | TGI (NCI-H23 lung): > 14.3 µM | GI50 (NCI-H460 lung): 2.82 µM | TGI (NCI-H460 lung): 5.68 µM | GI50 (NCI-H522 lung): 2.95 µM | TGI (NCI-H522 lung): 7.7 µM | GI50 (NCI/ADR-RES ovarian): 2.78 µM | TGI (NCI/ADR-RES ovarian): 6.86 µM | GI50 (OVCAR-3 ovarian): 2.85 µM | TGI (OVCAR-3 ovarian): 6.83 µM | GI50 (OVCAR-4 ovarian): 2.42 µM | TGI (OVCAR-4 ovarian): 5.1 µM | GI50 (OVCAR-5 ovarian): 3.12 µM | TGI (OVCAR-5 ovarian): 9.29 µM | GI50 (OVCAR-8 ovarian): 3.8 µM | TGI (OVCAR-8 ovarian): 13.1 µM | GI50 (PC-3 prostate): 3.06 µM | TGI (PC-3 prostate): 10.7 µM | GI50 (RPMI-8226 leukemia): 2.74 µM | TGI (RPMI-8226 leukemia): 8.28 µM | GI50 (RXF 393 renal): 1.92 µM | TGI (RXF 393 renal): 3.86 µM | GI50 (SF-268 CNS): 2.82 µM | TGI (SF-268 CNS): 10.8 µM | GI50 (SF-295 CNS): 2.46 µM | TGI (SF-295 CNS): 4.62 µM | GI50 (SF-539 CNS): 2.37 µM | TGI (SF-539 CNS): 4.55 µM | GI50 (SK-MEL-2 melanoma): 4.94 µM | TGI (SK-MEL-2 melanoma): > 14.3 µM | GI50 (SK-MEL-28 melanoma): 2.37 µM | TGI (SK-MEL-28 melanoma): 4.55 µM | GI50 (SK-MEL-5 melanoma): 2.4 µM | TGI (SK-MEL-5 melanoma): 4.82 µM | GI50 (SK-OV-3 ovarian): 2.85 µM | TGI (SK-OV-3 ovarian): 8.47 µM | GI50 (SN12C renal): 2.35 µM | TGI (SN12C renal): 5.31 µM | GI50 (SNB-19 CNS): 5.25 µM | TGI (SNB-19 CNS): > 14.3 µM | GI50 (SNB-75 CNS): 0.719 µM | TGI (SNB-75 CNS): 3.43 µM | GI50 (SR leukemia): 2.32 µM | TGI (SR leukemia): 6.92 µM | GI50 (SW-620 colon): 2.93 µM | TGI (SW-620 colon): 7.19 µM | GI50 (T-47D breast): 2.59 µM | TGI (T-47D breast): 7.95 µM | GI50 (TK-10 renal): 2.58 µM | TGI (TK-10 renal): 5.13 µM | GI50 (U251 CNS): 2.34 µM | TGI (U251 CNS): 4.63 µM | GI50 (UACC-257 melanoma): 2.46 µM | TGI (UACC-257 melanoma): 5.68 µM | GI50 (UACC-62 melanoma): 2.26 µM | TGI (UACC-62 melanoma): 4.66 µM | GI50 (UO-31 renal): 1.43 µM | TGI (UO-31 renal): 3.15 µM
